Measured values as given in patent publication US8987193B2, “Nisin derivatives and the use thereof” (University College Cork—National University of Ireland, Cork, priority 2008, dated 2015).
Entries after “also recorded” stand apart in the source; their conditions may differ. Ends that are not written are not given here.

System: indicator strains
Assay: Deferred antagonism assays, various indicator strains (summary)
Format: cell-based
Details: for Strain(s) against which the derivative (producing strain) displays enhanced bioactivity: relative to nisin A-producing control, value = strains listed
Method in brief: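 Producer strains were replicated on GM17 or GM17 x-gal agar, grown overnight, then overlaid with GM17, BHI, TS or MH soft agar (0.75% w/v) seeded with the indicator strain. Zone size was taken as the clearing diameter minus the diameter of bacterial growth (5 mm).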

Substance | Strain(s) against which the derivative (producing strain) displays enhanced bioactivity | relative bioactivity against the indicators of Table 6 (Staph. aureus ST528, DPC5245 and Strep. agalactiae ATCC 13813 taken together)
NisinA K22A (ITSISLCTPGCKTGALMGCNMATATCHCSIHVSK; not fully specified; also: lantibiotic: lanthionine rings and dehydro residues not placed; UniProt P13068 24-57, looked up, variant K22A) [nisin A derivative, hinge substitution K22A] | L. monocytogenes K22A and L. lactis CBC8; also recorded: L. lactis CBC8 and L. monocytogenes CBC2 , and an additional 13 L. monocytogenes and 3 L. innocua; also recorded: additional 13 L. monocytogenes and 3 L. innocua, S. aureus; also recorded: ST528 and DPC5425, Strep. agalactiae ATCC 13813 | 
NisinA M21S (ITSISLCTPGCKTGALMGCNSKTATCHCSIHVSK; not fully specified; also: lantibiotic nisin: dehydrated residues and thioether rings not placed; UniProt P13068 24-57, looked up, variant M21S) [nisin A derivative, hinge substitution M21S] | L. monocytogenes CBC2 , CBC3, Staph. aureus CBC4, C. sporogenes CBC5 and L. lactis CBC8; also recorded: L. monocytogenes CBC2 , CBC3, S. aureus CBC4, C. sporogenes CBC5, L. lactis CBC8 and an additional 23 L. monocytogenes strains and 3 L. innocua | 
NisinA M21I (ITSISLCTPGCKTGALMGCNIKTATCHCSIHVSK; not fully specified; also: lantibiotic: lanthionine rings and dehydro residues not placed; UniProt P13068 24-57, looked up, variant M21I) [nisin A derivative, hinge substitution M21I] | L. momocytogenes CBC2, Staph. aureus CBC4, C. sporogenes CBC5, L. lactis CBC7 and CBC8; also recorded: L. monocytogenes CBC2, S. aureus CBC4, C. sporogenes CBC5, L. lactis CBC7 and an additional 15 L. monocytogenes and 2 L. innocua | 
NisinA M21G (ITSISLCTPGCKTGALMGCNGKTATCHCSIHVSK; not fully specified; also: lantibiotic: lanthionine rings and dehydro residues not placed; UniProt P13068 24-57, looked up, variant M21G) [nisin A derivative, hinge substitution M21G] | L. monocytogenes CBC2, Staph. aureus CBC4 and C. sporogenes CBC5; also recorded: L. monocytogenes CBC2 , S. aureus CBC4, ST528 , and DPC5425, Strep. agalactiae ATCC 13813, C. sporogenes CBC5 + an additional 7 L. monocytogenes and 3 L. innocua | approximately 120%
